From US6750268B2, “Bonding composition” (Kuraray Co., Ltd., priority 1999, dated 2004)

Assays:
[1] = Measurement of pH of acid; assay type: physicochemical; conditions: one part by weight of acid in 99 parts by weight of distilled water
Method: One part by weight of the acid to be measured is mixed with 99 parts by weight of distilled water, and the pH of the resulting mixture is measured with a pH meter (Iuchi's pH meter).

[2] = Solubility of calcium salt of acid in film-forming agent
Method: Next, powdery calcium carbonate (0.1 mmols) is fed into the test tube, and stirred at room temperature for 10 minutes so that it is reacted with the acid to give a calcium salt of the acid. Next, the resulting solution is dried in a drier at 60° C. for 16 hours to remove water, and the 1 ml of a film-forming agent is added to the resulting residue. This is stirred at room temperature for 30 minutes, and the resulting solution is macroscopically checked as to whether it is clear or cloudy. The solubility of the calcium salt in the clear solution is above 0.1 M/L, and the acid is marked “x”.
To the cloudy solution in the test tube, 9 ml of the film-forming agent is further added, and stirred at room temperature for 30 minutes. This is again checked macroscopically. […] When it is still cloudy in this condition, the solubility of the calcium salt is below 0.01 M/L, and the acid is marked “O”. For easily-available calcium salts of acids, such as calcium chloride. calcium nitrate and others, they are not produced in the manner as above, but commercial products are used to measure their solubility.

[3] = Solubility of a calcium salt of an acid in water; conditions: for Calcium Salt of Acid: Solubility in water: room temperature, macroscopic check clear or cloudy
Method: Next, powdery calcium carbonate (0.1 mmols) is fed into the test tube, and stirred at room temperature for 10 minutes so that it is reacted with the acid. The resulting solution is macroscopically checked as to whether it is clear or cloudy. The solubility of the calcium salt in the clear solution is above 0.1 M/L, and the acid is marked “x”.
To the cloudy solution in the test tube, 9 ml of distilled water is further added, and stirred at room temperature for 30 minutes. This is again checked macroscopically. […] When it is still cloudy in this condition, the solubility of the calcium salt is below 0.01 M/L, and the acid is marked “O”. In case where the solubility of the calcium salt of the acid tested is numerically represented, test tubes having a proper capacity are prepared, and the process as above is repeated in them. Salt solutions having different concentrations are prepared, and they are macroscopically checked to quantitatively determine the solubility of the salt.

[4] = Miscibility of film-forming agent with physiological saline solution (uniformity of solution); assay type: physicochemical; conditions: film-forming agent mixed with same weight of physiological saline solution 9 g/L, room temperature, shaken 20 seconds, macroscopically checked
Method: The film-forming agent must be soluble in water. Preferably, at least 5% by weight of the agent are soluble in water. More preferably, it is soluble in water in any ratio. In addition, the water-soluble film-forming agent must be miscible with a physiological saline solution. Whether the film-forming agent is miscible with a physiological saline solution or not can be determined from its phase diagram. […] The uniformity of the resulting solution is determined. Accordingly, the miscibility of the film-forming agent with a physiological saline solution can be determined in a simple manner.
About 1 g of the film-forming agent shown in Table 1 below was metered into a 5 ml glass bottle, and a physiological saline solution with a concentration of 9 g/L of which the weight was the same as that of the film-forming agent was put into the glass bottle, and shaken at room temperature for 20 seconds. The resulting mixture was macroscopically checked as to whether or not it could be a uniform solution.

[5] = film-forming agent 90% by weight HEMA and 10% by weight BMHPE (Table 2)
[6] = film-forming agent 65% HEMA, 30% BMHPE, 5% Bis-GMA (Table 3)

| Compound | pH of Acid [1] | Calcium Salt of Acid: Solubility in Film-forming Agent [2, 5] | Solubility (Uniformity of Reference Solutions) [4] | also measured |
| --- | --- | --- | --- | --- |
| O=C(O)C(=O)O [oxalic acid] | 1.3 |  |  |  |
| Cc1ccc(S(=O)(=O)O)cc1 [TSA, p-toluenesulfonic acid, reference compound] | 1.4 | ◯ |  | solubility of the calcium salt of the acid in water (in words) ([3]; description, acid used in place of the polymerizable compound having an acid group): too high |
| O=C(O)CC(O)(CC(=O)O)C(=O)O [citric acid] | 1.6 |  |  |  |
| 8-methacryloyloxyoctyl phosphate [Example 8MOP] | 2.2 |  |  |  |
| C=C(C)C(=O)OCC(O)COCCOCC(O)COC(=O)C(=C)C (centres unmarked) [BMHPE, 1,2-bis(3-methacryloxy-2-hydroxypropoxy)ethane] |  |  | not dissolved |  |
| monomethacrylate of polyethylene glycol 200 [PE-200-OH] |  |  | dissolved |  |
| O=S(=O)(O)O [sulfuric acid] | 1.1 |  |  |  |
| C=C(C)C(=O)OCCCCCCCCCCOP(=O)(O)O [Example 10MDP, 10-methacryloyloxydecyl phosphate] | 2.3 | ◯ |  | Calcium Salt of Acid: Solubility in Film-forming Agent [2, 6]: ◯; solubility in water of calcium salt ([3]; numerical value): 0.0003 M/L; Calcium Salt of Acid: Solubility in water [3]: ◯ |
| dimethacrylate of polyethylene glycol 200 [PE-200-OMR] |  |  | not dissolved |  |
| O=P(O)(O)O [phosphoric acid] | 1.6 |  |  |  |
| C=C(C)C(=O)OCC(O)CO (centres unmarked) [GLM, glycerol monomethacrylate] |  |  | dissolved |  |
| C=C(C)C(=O)OCCCO [HPMA, hydroxypropyl methacrylate] |  |  | not dissolved |  |
| C=C(C)C(=O)OCCO [HEMA, hydroxyethyl methacrylate] |  |  | dissolved |  |
| O=[N+]([O-])O [nitric acid] | 0.9 |  |  |  |
| C=C(C)C(=O)O [MRA, methacrylic acid, reference compound] | 2.9 | ◯ |  |  |
| 12-methacryloyloxydodecyl phosphate [Example 12MLP] | 2.3 | ◯ |  | Calcium Salt of Acid: Solubility in Film-forming Agent [2, 6]: ◯; Calcium Salt of Acid: Solubility in water [3]: ◯ |
| 9-methacryloyloxynonyl phosphate [Example 9MNP] | 2.2 | ◯ |  | Calcium Salt of Acid: Solubility in Film-forming Agent [2, 6]: ◯; Calcium Salt of Acid: Solubility in water [3]: ◯ |
| Cl [hydrochloric acid] | 0.9 |  |  |  |
| C=C(C)C(=O)OCCOP(=O)(O)O [Example 2MEP, 2-methacryloyloxyethyl phosphate] | 1.7 | ◯ |  | Calcium Salt of Acid: Solubility in water [3]: ◯ |
| phenyl-2-methacryloyloxyethyl phosphate [PMEP] | 1.7 |  |  |  |
